Experimental data taken from article PMC8617944, “Preclinical Pharmacokinetics and Acute Toxicity in Rats of 5-{[(2E)-3-Bromo-3-carboxyprop-2-enoyl]amino}-2-hydroxybenzoic Acid: A Novel 5-Aminosalicylic Acid Derivative with Potent Anti-Inflammatory Activity” (Molecules, 2021).
“And” between values parts separate entries of the source, which are not always exact repeats. Equal values may be shown once. Read-outs that look alike come from different tables or passages of the source.

Assay: Distribution of C1 in tissues
Type: in vivo, Wistar rats
Settings: p.o. 75 mg/kg, 75 mg/kg; for concentration at 10 min / concentration at 30 min / concentration at 90 min / concentration at 3 h / concentration at 6 h: male, Wistar, rat, po
Description: Fifteen male Wistar rats were distributed in five groups (n = 3) and rats were orally administered C1 at a single dose of 75 mg/kg. Subsequently, a group of animals was sacrificed (n = 3) at 10, 30, 90, 180, and 360 min. […] All tissues and organs were weighed on an analytical balance and immediately processed. Each tissue sample was homogenized with saline solution in a 1:3 (wt/v) ratio. The preparation process for analysis was the same as described above for plasma samples [57] (File S8).

[1] = Small intestine, individual rats

O=C(/C=C(/Br)C(=O)O)Nc1ccc(O)c(C(=O)O)c1 [Compound C1, 5-{[(2E)-3-bromo-3-carboxyprop-2-enoyl]amino}-2-hydroxybenzoic acid]
Concentration (µg/mL) at 30 minutes, Rat 1-3 (Brain, individual rats): 4.1 µg/mL and 3.2 µg/mL
Concentration (µg/mL) at 90 minutes, Rat 1-3 (Brain, individual rats): 3.3 µg/mL and 3.8 µg/mL
Concentration (µg/mL) at 3 h, Rat 1-3 (Brain, individual rats): 1.9 µg/mL and 3.2 µg/mL
Concentration (µg/mL) at 6 h, Rat 1-3 (Brain, individual rats): 3.0 µg/mL
Concentration (µg/mL) at 10 minutes, Rat 1-3 (Colon, individual rats): 7.5 µg/mL and 9.4 µg/mL
Concentration (µg/mL) at 30 minutes, Rat 1-3 (Colon, individual rats): 10.6 µg/mL and 8.5 µg/mL and 3.9 µg/mL
Concentration (µg/mL) at 90 minutes, Rat 1-3 (Colon, individual rats): 7.9 µg/mL and 6.8 µg/mL
Concentration (µg/mL) at 3 h, Rat 1-3 (Colon, individual rats): 3.6 µg/mL and 6.1 µg/mL and 7.5 µg/mL
Concentration (µg/mL) at 10 minutes, Rat 1-3 (Hearth, individual rats): 8.0 µg/mL and 1.3 µg/mL and 12.4 µg/mL
Concentration (µg/mL) at 30 minutes, Rat 1-3 (Hearth, individual rats): 4.4 µg/mL and 2.6 µg/mL
Concentration (µg/mL) at 90 minutes, Rat 1-3 (Hearth, individual rats): 3.9 µg/mL and 3.0 µg/mL
Concentration (µg/mL) at 3 h, Rat 1-3 (Hearth, individual rats): 2.2 µg/mL and 4.0 µg/mL
Concentration (µg/mL) at 10 minutes, Rat 1-3 (Kidney, individual rats): 14.1 µg/mL and 11.2 µg/mL and 22.6 µg/mL
Concentration (µg/mL) at 30 minutes, Rat 1-3 (Kidney, individual rats): 9.1 µg/mL and 5.4 µg/mL
Concentration (µg/mL) at 90 minutes, Rat 1-3 (Kidney, individual rats): 6.1 µg/mL and 4.7 µg/mL
Concentration (µg/mL) at 3 h, Rat 1-3 (Kidney, individual rats): 4.2 µg/mL and 3.3 µg/mL and 6.8 µg/mL
Concentration (µg/mL) at 10 minutes, Rat 1-3 (Liver, individual rats): 5.1 µg/mL and 4.4 µg/mL
Concentration (µg/mL) at 30 minutes, Rat 1-3 (Liver, individual rats): 7.2 µg/mL and 6.4 µg/mL
Concentration (µg/mL) at 90 minutes, Rat 1-3 (Liver, individual rats): 2.6 µg/mL and 5.6 µg/mL and 5.1 µg/mL
Concentration (µg/mL) at 3 h, Rat 1-3 (Liver, individual rats): 5.0 µg/mL and 2.6 µg/mL and 7.0 µg/mL
Concentration (µg/mL) at 10 minutes, Rat 1-3 (Lung, individual rats): 23.3 µg/mL and 6.2 µg/mL and 17.7 µg/mL
Concentration (µg/mL) at 30 minutes, Rat 1-3 (Lung, individual rats): 14.6 µg/mL and 6.7 µg/mL and 10.9 µg/mL
Concentration (µg/mL) at 90 minutes, Rat 1-3 (Lung, individual rats): 4.0 µg/mL and 13.3 µg/mL and 4.8 µg/mL
Concentration (µg/mL) at 3 h, Rat 1-3 (Lung, individual rats): 3.9 µg/mL and 7.9 µg/mL and 10.0 µg/mL
Concentration (µg/mL) at 30 minutes, Rat 1-3 (Muscle, individual rats): 4.0 µg/mL
Concentration (µg/mL) at 90 minutes, Rat 1-3 (Muscle, individual rats): 3.3 µg/mL and 3.6 µg/mL
Concentration (µg/mL) at 3 h, Rat 1-3 (Muscle, individual rats): 2.4 µg/mL and 2.6 µg/mL
Concentration (µg/mL) at 30 minutes, Rat 1-3 [1]: 18.3 µg/mL and 23.9 µg/mL and 4.9 µg/mL
Concentration (µg/mL) at 90 minutes, Rat 1-3 [1]: 14.1 µg/mL and 18.2 µg/mL
Concentration (µg/mL) at 3 h, Rat 1-3 [1]: 15.4 µg/mL and 14.9 µg/mL
Concentration (µg/mL) at 10 minutes, Rat 1-3 (Spleen, individual rats): 22.6 µg/mL and 42.7 µg/mL
Concentration (µg/mL) at 30 minutes, Rat 1-3 (Spleen, individual rats): 15.6 µg/mL and 15.0 µg/mL
Concentration (µg/mL) at 90 minutes, Rat 1-3 (Spleen, individual rats): 5.5 µg/mL and 17.1 µg/mL and 12.4 µg/mL
Concentration (µg/mL) at 3 h, Rat 1-3 (Spleen, individual rats): 10.4 µg/mL and 4.7 µg/mL and 11.1 µg/mL
Concentration (µg/mL) at 10 minutes, Rat 1-3 (Stomach, individual rats): 24.1 µg/mL and 10.3 µg/mL and 20.5 µg/mL
Concentration (µg/mL) at 30 minutes, Rat 1-3 (Stomach, individual rats): 13.0 µg/mL and 11.8 µg/mL and 5.8 µg/mL
Concentration (µg/mL) at 90 minutes, Rat 1-3 (Stomach, individual rats): 10.4 µg/mL and 8.4 µg/mL and 4.8 µg/mL
Concentration (µg/mL) at 3 h, Rat 1-3 (Stomach, individual rats): 3.7 µg/mL and 8.5 µg/mL and 7.1 µg/mL
Concentration (µg/mL) at 30 minutes, Rat 1-3 (Testis, individual rats): 4.8 µg/mL and 2.4 µg/mL
Concentration (µg/mL) at 90 minutes, Rat 1-3 (Testis, individual rats): 2.7 µg/mL and 5.8 µg/mL and 3.5 µg/mL
Concentration (µg/mL) at 3 h, Rat 1-3 (Testis, individual rats): 2.8 µg/mL and 3.2 µg/mL
concentration at 10 min (brain, Brain, 10 min, n = 3, read-out: Average Concentration): 3.7 µg/mL
concentration at 30 min (brain, Brain, 30 min, n = 3, read-out: Average Concentration): 3.5 µg/mL
concentration at 90 min (brain, Brain, 90 min, n = 3, read-out: Average Concentration): 3.4 µg/mL
concentration at 3 h (brain, Brain, 3 h, n = 3, read-out: Average Concentration): 2.8 µg/mL
concentration at 6 h (brain, Brain, 6 h, n = 3, read-out: Average Concentration): 2.5 µg/mL
concentration at 10 min (brain, Brain, individual rats, read-out: Concentration (µg/mL) at 10 minutes, Rat 1-3): 4.1 µg/mL
concentration at 30 min (brain, Brain, individual rats, read-out: Concentration (µg/mL) at 30 minutes, Rat 1-3): 3.2 µg/mL
concentration at 90 min (brain, Brain, individual rats, read-out: Concentration (µg/mL) at 90 minutes, Rat 1-3): 3.1 µg/mL
concentration at 3 h (brain, Brain, individual rats, read-out: Concentration (µg/mL) at 3 h, Rat 1-3): 3.2 µg/mL
concentration at 6 h (brain, Brain, individual rats, read-out: Concentration (µg/mL) at 6 h, Rat 1-3): 2.2 µg/mL
concentration at 10 min (colon, Colon, 10 min, n = 3, read-out: Average Concentration): 10.3 µg/mL
concentration at 30 min (colon, Colon, 30 min, n = 3, read-out: Average Concentration): 7.6 µg/mL
concentration at 90 min (colon, Colon, 90 min, n = 3, read-out: Average Concentration): 6.3 µg/mL
concentration at 3 h (colon, Colon, 3 h, n = 3, read-out: Average Concentration): 5.7 µg/mL
concentration at 6 h (colon, Colon, 6 h, n = 3, read-out: Average Concentration): 6 µg/mL
concentration at 10 min (colon, Colon, individual rats, read-out: Concentration (µg/mL) at 10 minutes, Rat 1-3): 14.2 µg/mL
concentration at 90 min (colon, Colon, individual rats, read-out: Concentration (µg/mL) at 90 minutes, Rat 1-3): 4.2 µg/mL
concentration at 10 min (heart, Hearth, 10 min, n = 3, read-out: Average Concentration): 7.2 µg/mL
concentration at 30 min (heart, Hearth, 30 min, n = 3, read-out: Average Concentration): 3.6 µg/mL
concentration at 90 min (heart, Hearth, 90 min, n = 3, read-out: Average Concentration): 3.2 µg/mL
concentration at 3 h (heart, Hearth, 3 h, n = 3, read-out: Average Concentration): 2.9 µg/mL
